Measurements: ChEMBL document CHEMBL2311273, “Discovery of potent, selective multidrug and toxin extrusion transporter 1 (MATE1, SLC47A1) inhibitors through prescription drug profiling and computational modeling” (J Med Chem, 2013)

Assays:
[1] = biological target: T1, Solute carrier family 22 member 3 (Homo sapiens, UniProt O75751); experiment: Inhibition of human OCT3-mediated ASP+ uptake expressed in HEK293 cells after 3 mins by fluorescence assay; type: cell-based
T1 sequence (O75751 whole entry): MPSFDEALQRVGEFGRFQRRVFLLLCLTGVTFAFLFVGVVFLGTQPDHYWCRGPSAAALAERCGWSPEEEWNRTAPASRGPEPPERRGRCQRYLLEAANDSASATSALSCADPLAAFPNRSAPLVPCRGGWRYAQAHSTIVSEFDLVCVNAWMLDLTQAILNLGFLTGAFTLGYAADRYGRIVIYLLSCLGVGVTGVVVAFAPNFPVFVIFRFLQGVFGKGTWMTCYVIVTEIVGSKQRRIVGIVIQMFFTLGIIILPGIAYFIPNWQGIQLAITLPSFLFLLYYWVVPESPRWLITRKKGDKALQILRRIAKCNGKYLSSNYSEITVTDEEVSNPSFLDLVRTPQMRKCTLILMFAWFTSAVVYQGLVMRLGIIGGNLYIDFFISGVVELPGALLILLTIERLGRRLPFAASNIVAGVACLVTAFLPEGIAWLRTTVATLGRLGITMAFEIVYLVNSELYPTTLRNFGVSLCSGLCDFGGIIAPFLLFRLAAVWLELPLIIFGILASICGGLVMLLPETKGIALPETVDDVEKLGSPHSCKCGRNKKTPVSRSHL

[2] = biological target: T2, Solute carrier family 22 member 2 (Homo sapiens, UniProt O15244); experiment: Inhibition of human OCT2-mediated ASP+ uptake expressed in HEK293 cells after 3 mins by fluorescence assay; type: cell-based
T2 sequence (O15244 whole entry): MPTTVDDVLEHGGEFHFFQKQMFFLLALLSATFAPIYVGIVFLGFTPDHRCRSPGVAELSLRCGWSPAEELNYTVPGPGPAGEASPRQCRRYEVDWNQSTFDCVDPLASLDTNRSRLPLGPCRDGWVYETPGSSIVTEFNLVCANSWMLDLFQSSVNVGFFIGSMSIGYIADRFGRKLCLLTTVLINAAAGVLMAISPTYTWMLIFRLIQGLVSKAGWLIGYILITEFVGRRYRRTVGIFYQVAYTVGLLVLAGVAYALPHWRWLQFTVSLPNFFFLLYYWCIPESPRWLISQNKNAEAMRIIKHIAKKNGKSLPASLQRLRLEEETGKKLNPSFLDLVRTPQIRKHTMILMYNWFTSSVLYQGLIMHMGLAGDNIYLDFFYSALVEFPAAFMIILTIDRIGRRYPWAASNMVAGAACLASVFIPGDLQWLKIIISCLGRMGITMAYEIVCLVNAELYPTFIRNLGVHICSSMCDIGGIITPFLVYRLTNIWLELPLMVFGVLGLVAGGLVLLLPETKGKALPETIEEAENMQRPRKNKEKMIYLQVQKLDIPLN

[3] = biological target: T3, Solute carrier family 22 member 1 (Homo sapiens, UniProt O15245); experiment: Inhibition of human OCT1-mediated ASP+ uptake expressed in HEK293 cells after 3 mins by fluorescence assay; type: cell-based
T3 sequence (O15245 whole entry): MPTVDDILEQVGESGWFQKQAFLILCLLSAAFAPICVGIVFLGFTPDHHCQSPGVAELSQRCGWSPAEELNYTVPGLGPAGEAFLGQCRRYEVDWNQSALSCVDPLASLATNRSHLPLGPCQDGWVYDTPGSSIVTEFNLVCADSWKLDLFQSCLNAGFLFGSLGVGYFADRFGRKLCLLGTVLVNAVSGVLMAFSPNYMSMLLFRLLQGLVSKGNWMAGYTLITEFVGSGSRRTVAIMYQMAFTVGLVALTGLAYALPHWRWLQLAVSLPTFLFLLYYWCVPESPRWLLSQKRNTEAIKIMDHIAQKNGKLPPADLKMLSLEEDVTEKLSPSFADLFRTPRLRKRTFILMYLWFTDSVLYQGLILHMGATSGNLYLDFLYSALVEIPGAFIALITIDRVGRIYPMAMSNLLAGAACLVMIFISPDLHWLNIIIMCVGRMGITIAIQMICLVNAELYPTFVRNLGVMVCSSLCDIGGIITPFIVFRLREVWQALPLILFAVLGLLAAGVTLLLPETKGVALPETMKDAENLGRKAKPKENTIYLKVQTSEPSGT

[4] = biological target: T4, Multidrug and toxin extrusion protein 2 (Homo sapiens, UniProt Q86VL8); experiment: Inhibition of human MATE2K-mediated ASP+ uptake expressed in HEK293 cells up to 500 uM after 1.5 mins by fluorescence assay; type: cell-based; conditions: for INH: human, hek293, […]
T4 sequence (Q86VL8 whole entry): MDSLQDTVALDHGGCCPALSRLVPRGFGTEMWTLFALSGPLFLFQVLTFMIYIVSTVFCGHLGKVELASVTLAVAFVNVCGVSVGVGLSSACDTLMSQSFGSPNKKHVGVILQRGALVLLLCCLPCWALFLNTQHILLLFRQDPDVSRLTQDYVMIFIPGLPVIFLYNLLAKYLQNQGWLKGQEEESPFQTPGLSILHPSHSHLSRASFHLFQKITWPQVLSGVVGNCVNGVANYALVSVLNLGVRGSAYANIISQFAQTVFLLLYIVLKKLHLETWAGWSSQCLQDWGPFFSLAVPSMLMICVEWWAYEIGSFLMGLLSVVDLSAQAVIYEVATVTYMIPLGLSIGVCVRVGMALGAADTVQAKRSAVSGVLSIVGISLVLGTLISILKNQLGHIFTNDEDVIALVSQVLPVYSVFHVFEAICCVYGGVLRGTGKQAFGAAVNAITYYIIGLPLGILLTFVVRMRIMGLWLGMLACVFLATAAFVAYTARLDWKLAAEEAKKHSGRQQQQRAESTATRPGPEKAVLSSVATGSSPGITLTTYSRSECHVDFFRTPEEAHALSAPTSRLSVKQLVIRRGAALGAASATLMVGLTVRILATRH

[5] = biological target: T5, Multidrug and toxin extrusion protein 1 (Homo sapiens, UniProt Q96FL8); experiment: Inhibition of human MATE1-mediated ASP+ uptake expressed in HEK293 cells after 1.5 mins by fluorescence assay; type: cell-based
T5 sequence (Q96FL8 whole entry): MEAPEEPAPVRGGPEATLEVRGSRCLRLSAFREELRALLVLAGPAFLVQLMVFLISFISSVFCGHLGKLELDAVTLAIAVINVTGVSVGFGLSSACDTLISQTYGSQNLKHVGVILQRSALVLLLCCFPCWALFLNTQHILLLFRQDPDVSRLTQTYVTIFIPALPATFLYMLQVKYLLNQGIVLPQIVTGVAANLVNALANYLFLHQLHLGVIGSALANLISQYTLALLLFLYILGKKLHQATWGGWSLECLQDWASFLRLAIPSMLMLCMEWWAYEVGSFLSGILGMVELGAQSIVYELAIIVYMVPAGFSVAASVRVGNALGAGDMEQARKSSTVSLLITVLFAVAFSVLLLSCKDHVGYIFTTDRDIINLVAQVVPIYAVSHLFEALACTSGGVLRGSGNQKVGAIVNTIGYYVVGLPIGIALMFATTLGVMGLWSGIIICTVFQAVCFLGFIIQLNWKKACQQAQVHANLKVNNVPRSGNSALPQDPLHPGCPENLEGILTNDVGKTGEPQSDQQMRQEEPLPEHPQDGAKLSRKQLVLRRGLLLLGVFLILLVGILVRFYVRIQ

[6] = Cmax in human at 40 mg, po after 7 days; type: ADME, organism-based; parameters: dose 40 mg, route oral; conditions: in vivo
[7] = biological target: T5, Multidrug and toxin extrusion protein 1; experiment: Inhibition of human MATE1-mediated [14]-metformin uptake expressed in polarized MDCK2 cells after 5 mins by liquid scintillation counting analysis; type: cell-based, MDCK-II
[8] = biological target: T5, Multidrug and toxin extrusion protein 1; experiment: Inhibition of human MATE1-mediated [14]-metformin uptake expressed in HEK293 cells after 1.5 mins by scintillation counting analysis; type: cell-based
[9] = biological target: T4, Multidrug and toxin extrusion protein 2; experiment: Inhibition of human MATE2K-mediated ASP+ uptake expressed in HEK293 cells after 1.5 mins by fluorescence assay; type: cell-based
[10] = biological target: T6, MATE1 (multidrug and toxin extrusion protein 1) (Homo sapiens, UniProt Q96FL8); experiment: (§1) Inhibition of human MATE1-mediated ASP+ uptake expressed in HEK293 cells at 20 uM after 1.5 mins by fluorescence assay; type: cell-based; conditions: HEK293 cells expressing human MATE1, probe ASP+
T6 sequence (Q96FL8 whole entry): T5 sequence (Q96FL8 whole entry)

[11] = biological target: T5, Multidrug and toxin extrusion protein 1; experiment: as §1; type: cell-based; conditions: hek293, […], 20 µM
[12] = Cmax in iv dosed human; type: ADME, organism-based; parameters: route intravenous; conditions: in vivo

SMILES | IC50 [1] [µM] | IC50 [2] [µM] | IC50 [3] [µM] | IC50 [5] [µM] | IC50 [9] [µM] | also measured
O=C1c2c(O)ccc(O)c2C(=O)c2c(NCCNCCO)ccc(NCCNCCO)c21 [MITOXANTRONE] | 60.5 | 73.3 | 43.9 | – | – | –
COc1ccccc1OCCNCC(O)COc1cccc2[nH]c3ccccc3c12 (stereo unspecified) [CARVEDILOL] | – | 7.5 | – | 92.4 | – | INH [4]: Not Active; inhibition at […], 20 µM [10]: 21%
Cc1nccn1CC1CCc2c(c3ccccc3n2C)C1=O (stereo unspecified) [ONDANSETRON] | 17.4 | – | > 300 | – | – | –
[H]/N=C(\N/C(=N/[H])NCCCCCCNC(=N)NC(=N)Nc1ccc(Cl)cc1)Nc1ccc(Cl)cc1 [CHLORHEXIDINE] | 0.41 | 0.4 | 0.21 | 0.7 | 0.5 | INH [11]: 86%
COc1ccc2c(c1OC)C(=O)O[C@@H]2[C@H]1c2c(cc3c(c2OC)OCO3)CCN1C [NOSCAPINE] | – | 2.6 | – | – | – | INH [4]: Not Active; inhibition at […], 20 µM [10]: 13.4%
CC(C)(C)NC(=O)[C@@H]1CN(Cc2cccnc2)CCN1C[C@@H](O)C[C@@H](Cc1ccccc1)C(=O)N[C@H]1c2ccccc2C[C@H]1O | > 500 | 142 | 208 | – | – | –
Cn1c(NCCN(CCO)CCCc2ccc([N+](=O)[O-])cc2)cc(=O)n(C)c1=O [NIFEKALANT] | 146 | 10.3 | > 300 | – | – | Cmax [12]: 3.43 µM

More lines, main results first:

IC50 [1] [µM] | IC50 [2] [µM] | IC50 [3] [µM] | SMILES | IC50 [5] [µM] | IC50 [9] [µM] | also measured
137 | 1.5 | > 500 | COc1ccnc(C[S+]([O-])c2nc3ccc(OC(F)F)cc3[nH]2)c1OC (stereo unspecified) [PANTOPRAZOLE] | 43.2 | > 500 | IC50 [4]: 43.2 µM; Cmax [6]: 5.45 µM; IC50 [7]: 2.8 µM; IC50 [8]: 2.8 µM
10.7 | 36.1 | > 300 | NC(N)=Nc1nc(CSCCC(N)=NS(N)(=O)=O)cs1 [FAMOTIDINE] | 0.76 | 36.2 | –
9.5 | 1.2 | 22.1 | N=C(N)c1ccc(OCCCCCOc2ccc(C(=N)N)cc2)cc1 [PENTAMIDINE] | – | – | –
5.5 | 1.9 | 3.9 | Oc1c(Cl)cc(Cl)cc1Sc1cc(Cl)cc(Cl)c1O [BITHIONOL] | – | 6.6 | INH [11]: 87%
74.6 | 2.7 | 20.8 | CCc1c2c(nc3ccc(OC(=O)N4CCC(N5CCCCC5)CC4)cc13)-c1cc3c(c(=O)n1C2)COC(=O)[C@]3(O)CC [IRINOTECAN] | – | – | inhibition at […], 20 µM [10]: 49%
